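In this assay, cells in 96-well plates receive the compound at five concentrations for 48 hours. Endpoints are linearly interpolated between the surrounding concentrations. Here, GI50 denotes the concentration required for 50% inhibition of growth. At the TGI there is no net growth.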
Legend:
Assay in all cases: DTP human tumour cell line panel, 48 h
786-0 renal = test system: 786-0 renal
A498 renal = test system: A498 renal
A549 NSCLC = test system: A549 NSCLC
ACHN renal = test system: ACHN renal
BT-549 breast = test system: BT-549 breast
CAKI-1 renal = test system: CAKI-1 renal
COLO 205 colon = test system: COLO 205 colon
DU-145 prostate = test system: DU-145 prostate
EKVX NSCLC = test system: EKVX NSCLC
HCC-2998 colon = test system: HCC-2998 colon
HCT-116 colon = test system: HCT-116 colon
HCT-15 colon = test system: HCT-15 colon
HL-60(TB) leukemia = test system: HL-60(TB) leukemia
HOP-62 NSCLC = test system: HOP-62 NSCLC
HS 578T breast = test system: HS 578T breast
HT29 colon = test system: HT29 colon
IGROV1 ovarian = test system: IGROV1 ovarian
K-562 leukemia = test system: K-562 leukemia
KM12 colon = test system: KM12 colon
LOX IMVI melanoma = test system: LOX IMVI melanoma
M14 melanoma = test system: M14 melanoma
MALME-3M melanoma = test system: MALME-3M melanoma
MCF7 breast = test system: MCF7 breast
MDA-MB-231 breast = test system: MDA-MB-231 breast
MDA-MB-435 = test system: MDA-MB-435
MOLT-4 leukemia = test system: MOLT-4 leukemia
NCI-H460 lung = test system: NCI-H460 lung
NCI-H522 lung = test system: NCI-H522 lung
NCI/ADR-RES ovarian = test system: NCI/ADR-RES ovarian
OVCAR-3 ovarian = test system: OVCAR-3 ovarian
OVCAR-4 ovarian = test system: OVCAR-4 ovarian
OVCAR-5 ovarian = test system: OVCAR-5 ovarian
OVCAR-8 ovarian = test system: OVCAR-8 ovarian
PC-3 prostate = test system: PC-3 prostate
RPMI-8226 leukemia = test system: RPMI-8226 leukemia
RXF 393 renal = test system: RXF 393 renal
SF-268 CNS = test system: SF-268 CNS
SF-295 CNS = test system: SF-295 CNS
SF-539 CNS = test system: SF-539 CNS
SK-MEL-2 melanoma = test system: SK-MEL-2 melanoma
SK-MEL-28 melanoma = test system: SK-MEL-28 melanoma
SK-MEL-5 melanoma = test system: SK-MEL-5 melanoma
SK-OV-3 ovarian = test system: SK-OV-3 ovarian
SN12C renal = test system: SN12C renal
SNB-19 CNS = test system: SNB-19 CNS
SNB-75 CNS = test system: SNB-75 CNS
SW-620 colon = test system: SW-620 colon
T-47D breast = test system: T-47D breast
TK-10 renal = test system: TK-10 renal
U251 CNS = test system: U251 CNS
UACC-62 melanoma = test system: UACC-62 melanoma
UO-31 renal = test system: UO-31 renal

## O=C1NC(=O)C(c2ccccc2)=C1Nc1ccccc1
786-0 renal
  GI50: > 25 µM
  TGI: > 25 µM
A498 renal
  GI50: > 22.1 µM
  TGI: > 25 µM
A549 NSCLC
  GI50: > 25 µM
  TGI: > 25 µM
ACHN renal
  GI50: > 25 µM
  TGI: > 25 µM
BT-549 breast
  GI50: > 25 µM
  TGI: > 25 µM
CAKI-1 renal
  GI50: > 25 µM
  TGI: > 25 µM
COLO 205 colon
  GI50: > 25 µM
  TGI: > 25 µM
DU-145 prostate
  GI50: > 25 µM
  TGI: > 25 µM
EKVX NSCLC
  GI50: > 25 µM
  TGI: > 25 µM
HCC-2998 colon
  GI50: > 25 µM
  TGI: > 25 µM
HCT-116 colon
  GI50: > 25 µM
  TGI: > 25 µM
HCT-15 colon
  GI50: > 25 µM
  TGI: > 25 µM
HL-60(TB) leukemia
  GI50: > 25 µM
  TGI: > 25 µM
HOP-62 NSCLC
  GI50: > 25 µM
  TGI: > 25 µM
HS 578T breast
  GI50: 16.3 µM
  TGI: > 25 µM
HT29 colon
  GI50: > 25 µM
  TGI: > 25 µM
IGROV1 ovarian
  GI50: > 25 µM
  TGI: > 25 µM
K-562 leukemia
  GI50: > 25 µM
  TGI: > 25 µM
KM12 colon
  GI50: > 25 µM
  TGI: > 25 µM
LOX IMVI melanoma
  GI50: > 25 µM
  TGI: > 25 µM
M14 melanoma
  GI50: > 25 µM
  TGI: > 25 µM
MALME-3M melanoma
  GI50: > 25 µM
  TGI: > 25 µM
MCF7 breast
  GI50: > 25 µM
  TGI: > 25 µM
MDA-MB-231 breast
  GI50: > 25 µM
  TGI: > 25 µM
MDA-MB-435
  GI50: > 25 µM
  TGI: > 25 µM
MOLT-4 leukemia
  GI50: > 25 µM
  TGI: > 25 µM
NCI-H460 lung
  GI50: > 25 µM
  TGI: > 25 µM
NCI-H522 lung
  GI50: > 25 µM
  TGI: > 25 µM
NCI/ADR-RES ovarian
  GI50: > 25 µM
  TGI: > 25 µM
OVCAR-3 ovarian
  GI50: > 25 µM
  TGI: > 25 µM
OVCAR-4 ovarian
  GI50: > 25 µM
  TGI: > 25 µM
OVCAR-5 ovarian
  GI50: > 25 µM
  TGI: > 25 µM
OVCAR-8 ovarian
  GI50: > 25 µM
  TGI: > 25 µM
PC-3 prostate
  GI50: > 25 µM
  TGI: > 25 µM
RPMI-8226 leukemia
  GI50: > 25 µM
  TGI: > 25 µM
RXF 393 renal
  GI50: > 25 µM
  TGI: > 25 µM
SF-268 CNS
  GI50: > 25 µM
  TGI: > 25 µM
SF-295 CNS
  GI50: > 25 µM
  TGI: > 25 µM
SF-539 CNS
  GI50: > 25 µM
  TGI: > 25 µM
SK-MEL-2 melanoma
  GI50: > 25 µM
  TGI: > 25 µM
SK-MEL-28 melanoma
  GI50: > 25 µM
  TGI: > 25 µM
SK-MEL-5 melanoma
  GI50: > 25 µM
  TGI: > 25 µM
SK-OV-3 ovarian
  GI50: > 25 µM
  TGI: > 25 µM
SN12C renal
  GI50: > 25 µM
  TGI: > 25 µM
SNB-19 CNS
  GI50: > 25 µM
  TGI: > 25 µM
SNB-75 CNS
  GI50: > 25 µM
  TGI: > 25 µM
SW-620 colon
  GI50: > 25 µM
  TGI: > 25 µM
T-47D breast
  GI50: > 25 µM
  TGI: > 25 µM
TK-10 renal
  GI50: > 25 µM
  TGI: > 25 µM
U251 CNS
  GI50: > 25 µM
  TGI: > 25 µM
UACC-62 melanoma
  GI50: > 25 µM
  TGI: > 25 µM
UO-31 renal
  GI50: > 25 µM
  TGI: > 25 µM

Source: PubChem BioAssay (NCI)
